Key:
[1] = molecular target: T1, MAT2A enzyme (Homo sapiens, UniProt P31153); test: Enzymatic testing method for MAT2A (Biomol Green, OD620); format: biochemical; details: score by IC50 for inhibiting MAT2A; read-out: MAT2A inhibition score
T1 construct: purchased BPS 71401
Description: • a) A 5×MAT2A test buffer (250 mM Tris-HCl, pH 8.0; 250 mM KCl; 75 mM MgCl2; 0.025% BSA; 0.05% Brij35; 1.5 mM EDTA) was first prepared and partially diluted to 1× for later use; • b) Preparation and addition of MAT2A enzyme (BPS, 71401): the MAT2A enzyme was prepared into 3.674 ng/L by using the 1×MAT2A test buffer (1.67×, final concentration 2.20 ng/L), a BioTek (MultiFlo FX) automatic liquid separator was used, 15 μL of 1.67×MAT2A enzyme solution was added to compound test wells and negative control wells respectively, and 15 μL of 1×MAT2A test buffer was added to blank control wells; • c) Preparation and addition of a compound: a compound to be tested was diluted with DMSO from 10 mM stock solution to 100 μM, a positive drug AGI-24512 was diluted under the same conditions, and the diluted compound and positive drug were automatically sprayed into each well by using a Tecan compound titrator (D300e) according to preset concentration gradients, where the spray volume was little and negligible. The concentration gradient was initially 1 μM, the dilution was implemented by ½ log, and a total of 8 gradients were set. Centrifugation at 2500 rpm for 30 s and incubation at 25° C. for 30 min were performed; • d) Preparation of ATP: 10 mM ATP (Sigma, A7699) was diluted with 1×MAT2A test buffer to 700 μM for later use; • e) Preparation and addition of a substrate and ATP mixture: 5×MAT2A test buffer, 3 μL/well; 750 μM L-methionine (Adamas, 01100469), 2.5 μL/well; 700 μM ATP, 2.5 μL/well; and double distilled water, 2 μL/well. A total amount of required mixture was prepared according to the number of test wells, and 10 μL of the mixture was added to each well by using the BioTek (MultiFlo FX) automatic liquid separator, followed by centrifugation at 2500 rpm for 30 s and reaction at 25° C. for 150 min; • f) Addition of Biomol Green detection reagent: 50 μL of Biomol Green (Enzo, BML-AK111) was added to each well by using the BioTek (MultiFlo FX) automatic liquid separator, followed by centrifugation at 2500 rpm for 30 s and incubation at 25° C. for 20 minutes; • g) After the reaction, OD620 values were read by using a Perkin Elmer (Envision 2105) multifunctional plate reader.
A formula for calculating an inhibition rate was as follows: […]
Wherein, • % Inhibition: inhibition rate % • ODsample: OD620 value in a sample well; • ODmin: representing a mean OD620 value of blank control wells without the enzyme or compound to be tested; • ODmax: representing a mean OD620 value of negative control wells with the enzyme and without the compound.
Then a dose-effect curve log(inhibitor) vs. response-Variable slope was fitted by usingGraphPad Prism 5 software to obtain an IC50 value of compound for MAT2A enzyme inhibition.

[2] = system: HCT116 MTAP −/− cells; test: Cell testing method: HCT116 MTAP-/- cell proliferation inhibition (CellTiter-Glo, 120 h); format: cell-based; details: Homo sapiens, HCT-116; score by IC50 for inhibiting HCT116 MTAP−/− cells
Description: HCT116 MTAP −/− cells (purchased from Horizon Discovery): human colorectal cancer cell lines with MTAP gene deletion were cultured in medium RPMI 1640+10% FBS (Fetal bovine serum). On day 0 of the experiment, the live cell density of the foregoing cells in logarithmic growth phase was adjusted to 5000 cells/ml, the cells were inoculated to a 96-well plate by an amount of 100 μl/well, and a blank group was set in parallel; and the inoculated cell plate was put into a 37° C., 5% CO2 incubator for overnight culture.
On day 1 of the experiment, the overnight cultured cell plate was taken out, the supernatant was discarded, 80 μl of serum-free RPMI 1640 medium was added to each well, and place the cells in an incubator for starvation cultivation for 4 h. The compound to be tested was dissolved in DMSO (dimethyl sulfoxide) to prepare a 10 mM compound stock solution. After starvation, the cell plate was taken out, and 80 μl of RPMI 1640+20% FBS medium was added to each well; the cell plate was placed on an automatic liquid dispenser D300e (Tecan), and a dosing program was set as follows: a maximum concentration of the compound to be tested was 30 μM, the compound was diluted with DMSO by a 3 times concentration gradient, there was a total of 10 concentrations, two duplicate wells were set for each concentration, and the DMSO final concentration in each well of the 96-well plate was 0.3%, v/v. The pre-prepared 10 mM stock solution of the compound to be tested was taken out, and the above dosing program was run for dosing. After the dosing was completed, the cell plate was placed in incubator and culture for 120 h.
On day 6 of the experiment, the cell plate was taken out, 50 μl of CellTiter-Go® (purchased from Promega) was added to each well, and fluorescence signal was measured on Envision (PerkinElmer) according to operation procedures in the manual.
A dose-effect curve: log(inhibitor) vs. response-Variable slope was fitted by using GraphPad Prism 5 software to obtain an IC50 value of the compound for inhibiting cell proliferation inhibition. A formula for calculating an inhibition rate was: […]
Wherein, • Signal value of tested compound: mean fluorescence signal of cells group+medium group+compound group; • Signal value of blank group: mean fluorescence signal of medium group; • Signal value of negative control group: mean fluorescence signal of cells group+medium group.

[3] = system: HCT116 MTAP−/− subcutaneous xenograft tumors; test: In vivo effect experiment of HCT116 MTAP−/− subcutaneous xenograft tumors in nude mice
Description: Female Nu/Nu nude mice (6-8 weeks old, Beijing Vital River Laboratory Animal Technology Co., Ltd.) were raised in an SPF animal room at a temperature of 20° C.-25° C., relative humidity of 40%-70%, and light and dark lighting for 12 hours each; and animals can freely drink and eat. The animals were adaptively fed before experiment.
HCT116 MTAP^−/− cells (Horizon) were cultured in vitro for proliferation, cells in logarithmic growth phase were collected and resuspended in a serum-free RPMI-1640 medium, and the cell concentration was adjusted to 6.0×10^7 cells/mL; and 100 μL of the cell suspension was injected subcutaneously into the right anterior armpit of each nude mouse by using a 1 mL syringe, the status of the animals was observed regularly, and the growth of transplanted tumors was monitored regularly.
When the tumor volume reached 100-300 mm^3, animals with too large or too small tumor volume or uncertain tumor formation were eliminated, and tumor bearing mice with good health and similar tumor volume were selected and randomly grouped, 6 mice in each group; the administration group received daily intragastric administration (AG-270: 50 mg/kg, with a structure shown below; compound to be tested: 1-7.5 mg/kg); and the control group was intragastrically administrated with the same volume of blank solvent. In the administration period, the tumor diameter was measured twice a week, the tumor volume was calculated, the animals were weighed, and their weight was recorded.
A formula for calculating tumor volume (TV) is: Tv=½×a×b^2, wherein a represents long diameter of the tumor, and b represents short diameter of the tumor.
Experimental data is calculated and statistically processed by using Microsoft Office Excel 2007 software. Unless otherwise specified, the data were expressed as mean±standard error (Mean SEM), and t-test is used for comparison between two groups.
Growth curves of tumor volume in each group are shown in FIG. 1, results of SAM test in tumors of each group are shown in FIG. 2, and the mean tumor volume and SEM in each group are shown in Table 2 below: […]

T1 sequence (P31153 whole entry): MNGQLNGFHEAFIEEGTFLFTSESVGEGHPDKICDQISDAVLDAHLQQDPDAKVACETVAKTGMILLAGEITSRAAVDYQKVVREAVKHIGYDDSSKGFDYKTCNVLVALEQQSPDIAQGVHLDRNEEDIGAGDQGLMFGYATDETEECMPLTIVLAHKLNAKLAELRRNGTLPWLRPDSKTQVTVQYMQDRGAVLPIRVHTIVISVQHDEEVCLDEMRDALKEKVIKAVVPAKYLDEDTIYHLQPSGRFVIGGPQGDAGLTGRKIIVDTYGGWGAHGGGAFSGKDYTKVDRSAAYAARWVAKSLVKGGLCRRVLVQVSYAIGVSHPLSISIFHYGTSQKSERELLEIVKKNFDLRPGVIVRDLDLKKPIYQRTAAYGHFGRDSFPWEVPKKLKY

Cn1cc2cc(-c3cn4ccc(C5CC5)nc4c(-c4ccc(OC(F)F)cc4)c3=O)ccc2n1 [Example 25, 2-cyclopropyl-9-[4-(difluoromethoxy)phenyl]-7-(2-methyl-2H-indazol-5-yl)-8H-pyrido[1,2-a]pyrimidin-8-one]
IC50 [1]: < 0.05 µM
IC50 [2]: < 0.15 µM
Tumor volume, mean volume ([3]; 5 mg/kg daily intragastric, day 1 of administration): 152 mm^3
Tumor volume, mean volume ([3]; 5 mg/kg daily intragastric, day 4 of administration): 174 mm^3
Tumor volume, mean volume ([3]; 5 mg/kg daily intragastric, day 6 of administration): 186 mm^3
Tumor volume, mean volume ([3]; 5 mg/kg daily intragastric, day 8 of administration): 219 mm^3
Tumor volume, mean volume ([3]; 5 mg/kg daily intragastric, day 11 of administration): 305 mm^3
Tumor volume, mean volume ([3]; 5 mg/kg daily intragastric, day 13 of administration): 378 mm^3
Tumor volume, mean volume ([3]; 5 mg/kg daily intragastric, day 15 of administration): 417 mm^3

O=c1c(-c2ccc(OC(F)F)cc2)cn2ccc(C3CC3)nc2c1-c1ccc(OC(F)F)cc1 [Example 23, 2-cyclopropyl-7,9-bis[4-(difluoromethoxy)phenyl]-8H-pyrido[1,2-a]pyrimidin-8-one]
IC50 [1]: < 0.05 µM
IC50 [2]: < 0.15 µM
Tumor volume, mean volume ([3]; 1 mg/kg daily intragastric, day 1 of administration): 152 mm^3
Tumor volume, mean volume ([3]; 1 mg/kg daily intragastric, day 4 of administration): 198 mm^3
Tumor volume, mean volume ([3]; 1 mg/kg daily intragastric, day 6 of administration): 205 mm^3
Tumor volume, mean volume ([3]; 1 mg/kg daily intragastric, day 8 of administration): 238 mm^3
Tumor volume, mean volume ([3]; 1 mg/kg daily intragastric, day 11 of administration): 266 mm^3
Tumor volume, mean volume ([3]; 1 mg/kg daily intragastric, day 13 of administration): 284 mm^3
Tumor volume, mean volume ([3]; 1 mg/kg daily intragastric, day 15 of administration): 312 mm^3
Tumor volume, mean volume ([3]; 2.5 mg/kg daily intragastric, day 1 of administration): 153 mm^3
Tumor volume, mean volume ([3]; 2.5 mg/kg daily intragastric, day 4 of administration): 190 mm^3
Tumor volume, mean volume ([3]; 2.5 mg/kg daily intragastric, day 6 of administration): 196 mm^3
Tumor volume, mean volume ([3]; 2.5 mg/kg daily intragastric, day 8 of administration): 193 mm^3
Tumor volume, mean volume ([3]; 2.5 mg/kg daily intragastric, day 11 of administration): 208 mm^3
Tumor volume, mean volume ([3]; 2.5 mg/kg daily intragastric, day 13 of administration): 190 mm^3
Tumor volume, mean volume ([3]; 2.5 mg/kg daily intragastric, day 15 of administration): 191 mm^3

Cn1cc2cc(-c3cn4ccc(OCC(F)(F)F)nc4c(-c4ccc(OC(F)F)cc4)c3=O)ccc2n1 [Example 22, 9-[4-(difluoromethoxy)phenyl]-7-(2-methyl-2H-indazol-5-yl)-2-(2,2,2-trifluoroethoxy)-8H-pyrido[1,2-a]pyrimidin-8-one]
IC50 [1]: < 0.05 µM
IC50 [2]: < 0.15 µM
Tumor volume, mean volume ([3]; 7.5 mg/kg daily intragastric, day 1 of administration): 152 mm^3
Tumor volume, mean volume ([3]; 7.5 mg/kg daily intragastric, day 4 of administration): 173 mm^3
Tumor volume, mean volume ([3]; 7.5 mg/kg daily intragastric, day 6 of administration): 180 mm^3
Tumor volume, mean volume ([3]; 7.5 mg/kg daily intragastric, day 8 of administration): 212 mm^3
Tumor volume, mean volume ([3]; 7.5 mg/kg daily intragastric, day 11 of administration): 267 mm^3
Tumor volume, mean volume ([3]; 7.5 mg/kg daily intragastric, day 13 of administration): 324 mm^3
Tumor volume, mean volume ([3]; 7.5 mg/kg daily intragastric, day 15 of administration): 375 mm^3

Cn1cc2cc(-c3cn4ccc(NCC(F)(F)F)nc4c(-c4ccc5c(c4)OC(F)(F)O5)c3=O)ccc2n1 [Example 20, 9-(2,2-difluoro-1,3-benzodioxol-5-yl)-7-(2-methyl-2H-indazol-5-yl)-2-[(2,2,2-trifluoroethyl)amino]-8H-pyrido[1,2-a]pyrimidin-8-one]
IC50 [1]: < 0.05 µM
IC50 [2]: < 0.15 µM

CN1Cc2c3cc(-c4cn5ccc(C6CC6)nc5c(-c5ccc(OC(F)F)cc5)c4=O)ccc3nn2CC12CC2 [Example 38, 2-cyclopropyl-9-(4-(difluoromethoxy)phenyl)-7-(2′-methyl-1′,2′-dihydro-4′H-spiro[cyclopropane-1,3′-pyrazino[1,2-b]indazol]-9′-yl)-8H-pyrido[1,2-a]pyrimidin-8-one]
IC50 [1]: < 0.05 µM
IC50 [2]: < 0.15 µM
